Values belong to the compound of their own block, whether it stands above or below them.
How the values were obtained:
[1] = Drug concentration in C57BL/6J mouse brain at 5 mg/kg,ip measured at 0.5 hrs by LC-MS analysis; type: ADME, organism-based; conditions: read-out: Ct
[2] = Drug concentration in C57BL/6J mouse plasma at 5 mg/kg,ip measured at 0.5 hrs by LC-MS analysis; type: ADME, organism-based; conditions: in vivo
[3] = Ratio of drug concentration in brain to plasma in C57BL/6J mouse at 5 mg/kg,ip measured at 0.5 hrs by LC-MS analysis; type: ADME, organism-based; conditions: read-out: BPR
[4] = Drug concentration in C57BL/6J mouse brain at 5 mg/kg,ip measured at 2 hrs by LC-MS analysis; type: ADME, organism-based; conditions: read-out: Ct
[5] = Drug concentration in C57BL/6J mouse plasma at 5 mg/kg,ip measured at 2 hrs by LC-MS analysis; type: ADME, organism-based; conditions: in vivo
[6] = Ratio of drug concentration in brain to plasma in C57BL/6J mouse at 5 mg/kg,ip measured at 2 hrs by LC-MS analysis; type: ADME, organism-based; conditions: read-out: BPR
[7] = target: T1, D(2) dopamine receptor (Homo sapiens, UniProt P14416); test: Displacement of [3H]N-methylspiperone from Dopamine D2 receptor (unknown origin) expressed in HEK293T cell membrane incubated for 2 hrs by radioligand competitive binding based MicroBeta TriLux reader method; type: cell membranes
[8] = target: T1, D(2) dopamine receptor; test: Partial agonist activity at Dopamine D2 receptor (unknown origin) expressed in HEK293T co-expressing G-alphai assessed as increase in cAMP accumulation incubated for 5 mins by BRET assay; type: functional, cell-based
[9] = target: T1, D(2) dopamine receptor; test: Partial agonist activity at Dopamine D2 receptor (unknown origin) expressed in HEK293T coexpressing beta-arrestin-2 assessed as increase in cAMP accumulation incubated for 5 mins by beta-arrestin recruitment based BRET assay; type: functional, cell-based
[10] = target: D(1A) dopamine receptor (Homo sapiens, UniProt P21728); test: Displacement of [3H]-SCH23390 from Dopamine D1 receptor (unknown origin) expressed in HEK293T cell membrane incubated for 2 hrs by radioligand competitive binding based MicroBeta TriLux reader method; type: cell membranes
[11] = target: D(1B) dopamine receptor (Homo sapiens, UniProt P21918); test: Displacement of […] from Dopamine D5 receptor (unknown origin) expressed in HEK293T cell membrane incubated for 2 hrs by radioligand competitive binding based MicroBeta TriLux reader method; type: cell membranes
[12] = target: T2, 5-hydroxytryptamine receptor 2C (Homo sapiens, UniProt P28335); test: Displacement of [3H]-LSD from 5-HT2C receptor (unknown origin) expressed in HEK293T cell membrane incubated for 2 hrs by radioligand competitive binding based MicroBeta TriLux reader method; type: cell membranes
T2 sequence (P28335 whole entry): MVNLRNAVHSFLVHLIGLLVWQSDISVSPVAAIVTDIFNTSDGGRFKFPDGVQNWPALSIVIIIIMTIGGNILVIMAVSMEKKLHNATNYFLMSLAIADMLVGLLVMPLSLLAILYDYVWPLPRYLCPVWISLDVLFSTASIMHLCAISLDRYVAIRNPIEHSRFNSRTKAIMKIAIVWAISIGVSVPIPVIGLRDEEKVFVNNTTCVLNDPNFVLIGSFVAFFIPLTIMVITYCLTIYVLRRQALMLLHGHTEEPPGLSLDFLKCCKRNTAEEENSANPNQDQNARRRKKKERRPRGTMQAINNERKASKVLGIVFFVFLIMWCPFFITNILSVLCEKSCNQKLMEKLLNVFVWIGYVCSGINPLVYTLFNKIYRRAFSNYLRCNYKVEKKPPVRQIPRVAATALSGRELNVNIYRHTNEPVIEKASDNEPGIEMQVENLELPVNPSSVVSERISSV

[13] = Half life in Sprague-Dawley rat at 3 mg/kg,iv measured upto 24 hrs by LC-MS analysis; type: ADME, organism-based; conditions: in vivo
[14] = C0 in Sprague-Dawley rat at 3 mg/kg,iv measured upto 24 hrs by LC-MS analysis; type: ADME, organism-based; conditions: in vivo
[15] = AUC (0-t) in Sprague-Dawley rat at 3 mg/kg,iv measured upto 24 hrs by LC-MS analysis; type: ADME, organism-based; design: dose 3 mg/kg, time < 24 hrs, route iv; conditions: in vivo
[16] = AUC (0-infinity) in Sprague-Dawley rat at 3 mg/kg,iv measured upto 24 hrs by LC-MS analysis; type: ADME, organism-based; design: dose 3 mg/kg, time < 24 hrs, route iv; conditions: in vivo
[17] = Clearance in Sprague-Dawley rat at 3 mg/kg,iv measured upto 24 hrs by LC-MS analysis; type: ADME, organism-based; conditions: in vivo
[18] = Half life in Sprague-Dawley rat at 10 mg/kg,po measured upto 24 hrs by LC-MS analysis; type: ADME, organism-based; conditions: in vivo
[19] = Cmax in Sprague-Dawley rat at 10 mg/kg,po measured upto 24 hrs by LC-MS analysis; type: ADME, organism-based; design: time < 24 hrs, dose 10 mg/kg, route po; conditions: in vivo
[20] = Tmax in Sprague-Dawley rat at 10 mg/kg,po measured upto 24 hrs by LC-MS analysis; type: ADME, organism-based; conditions: in vivo
[21] = AUC (0-t) in Sprague-Dawley rat at 10 mg/kg,po measured upto 24 hrs by LC-MS analysis; type: ADME, organism-based; design: time < 24 hrs, dose 10 mg/kg, route po; conditions: in vivo
[22] = AUC (0-infinity) in Sprague-Dawley rat at 10 mg/kg,po measured upto 24 hrs by LC-MS analysis; type: ADME, organism-based; design: dose 10 mg/kg, time < 24 hrs, route po; conditions: in vivo
[23] = Oral bioavailability in Sprague-Dawley rat at 10 mg/kg measured upto 24 hrs by LC-MS analysis; type: ADME, organism-based; conditions: in vivo

D(1B) dopamine receptor, sequence (P21918 whole entry): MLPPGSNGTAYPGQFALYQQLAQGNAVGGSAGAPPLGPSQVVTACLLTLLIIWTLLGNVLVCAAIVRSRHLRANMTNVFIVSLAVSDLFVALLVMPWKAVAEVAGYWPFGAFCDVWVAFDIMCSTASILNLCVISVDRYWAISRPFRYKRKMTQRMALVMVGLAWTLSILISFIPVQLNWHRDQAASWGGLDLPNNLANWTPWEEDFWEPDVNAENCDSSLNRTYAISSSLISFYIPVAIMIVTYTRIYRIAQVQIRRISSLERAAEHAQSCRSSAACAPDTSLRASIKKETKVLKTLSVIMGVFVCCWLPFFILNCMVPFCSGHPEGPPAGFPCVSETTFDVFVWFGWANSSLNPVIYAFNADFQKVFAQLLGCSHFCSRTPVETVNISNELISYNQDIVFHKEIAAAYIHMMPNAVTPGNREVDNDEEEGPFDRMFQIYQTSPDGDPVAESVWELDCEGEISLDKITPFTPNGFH
T1 sequence (P14416 whole entry): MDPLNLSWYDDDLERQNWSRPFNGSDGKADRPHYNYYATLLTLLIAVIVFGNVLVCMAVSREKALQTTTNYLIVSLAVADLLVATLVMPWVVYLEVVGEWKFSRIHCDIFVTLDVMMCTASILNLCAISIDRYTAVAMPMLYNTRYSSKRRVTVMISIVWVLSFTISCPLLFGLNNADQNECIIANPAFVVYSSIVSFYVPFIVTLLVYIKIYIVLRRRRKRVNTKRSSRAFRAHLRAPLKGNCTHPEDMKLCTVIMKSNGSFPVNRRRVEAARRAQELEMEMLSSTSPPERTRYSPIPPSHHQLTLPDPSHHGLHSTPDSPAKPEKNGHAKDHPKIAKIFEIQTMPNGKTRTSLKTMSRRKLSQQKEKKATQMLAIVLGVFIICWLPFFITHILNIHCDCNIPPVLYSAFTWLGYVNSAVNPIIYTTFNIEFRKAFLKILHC
D(1A) dopamine receptor, sequence (P21728 whole entry): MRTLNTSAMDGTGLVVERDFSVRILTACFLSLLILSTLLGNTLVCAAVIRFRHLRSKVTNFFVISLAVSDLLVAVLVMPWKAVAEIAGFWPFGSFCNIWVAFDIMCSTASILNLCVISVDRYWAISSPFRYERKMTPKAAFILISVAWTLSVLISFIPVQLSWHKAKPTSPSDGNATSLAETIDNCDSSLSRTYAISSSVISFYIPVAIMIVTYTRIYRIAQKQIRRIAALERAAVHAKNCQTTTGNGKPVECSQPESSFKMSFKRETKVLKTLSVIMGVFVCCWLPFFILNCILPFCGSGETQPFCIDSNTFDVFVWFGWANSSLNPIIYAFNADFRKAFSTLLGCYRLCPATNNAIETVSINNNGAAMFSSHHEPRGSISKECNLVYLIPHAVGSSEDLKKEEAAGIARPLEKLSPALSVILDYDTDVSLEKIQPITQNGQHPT

Ki ([7]; read-out: Ki): 1.34 µM | EC50 ([8]; read-out: EC50): 2.21 µM | EC50 ([9]; read-out: EC50): 0.518 µM
SMILES: COc1cccc2c3c(oc12)CN(CCCCOc1ccc2cccnc2c1)CC3

Ki ([7]; read-out: Ki): 3.19 µM | Ki ([7]; read-out: pKi (converted)): 3.24 µM | EC50 ([8]; read-out: EC50): 0.869 µM | EC50 ([9]; read-out: EC50): 1.34 µM | EC50 ([9]; read-out: pEC50 (converted)): 1.41 µM
SMILES: COc1cccc2c3c(oc12)CN(CCCCOc1ccc2c(c1)NC(=O)C2)CC3

EC50 ([8]; read-out: EC50): 0.00031 µM | EC50 ([9]; read-out: EC50): 0.0266 µM
SMILES: COc1cccc2c3c(oc12)CN(CCCOc1ccc2ccc(=O)[nH]c2c1)CC3

EC50 ([8]; hek293t): Not Active
SMILES: CCOc1cccc2c3c(oc12)CN(CCCCOc1ccc2ccc(=O)[nH]c2c1)CC3

Ki ([7]; read-out: Ki): 0.439 µM | Ki ([7]; read-out: pKi (converted)): 0.447 µM | EC50 ([8]; read-out: EC50): 0.955 µM | EC50 ([9]; read-out: EC50): 0.0451 µM | EC50 ([9]; read-out: pEC50 (converted)): 0.0457 µM
SMILES: CCOc1cccc2cc(CNCCCCCOc3ccc4c(c3)NC(=O)CC4)oc12

concentration at 0.5 h [1]: 168 ng/mL | Kp at 0.5 h [3]: 0.142 | concentration at 2 h [4]: 6.05 ng/mL | Cp [5]: 53.8 ng/mL | Kp at 2 h [6]: 0.113
SMILES: CCOc1cccc2cc(CNCCCCOc3ccc4c(c3)NC(=O)CC4)oc12

EC50 ([9]; read-out: EC50): 0.023 µM
SMILES: COc1cccc2c3c(oc12)CN(C/C=C/COc1ccc2ccc(=O)[nH]c2c1)CC3

Ki ([7]; read-out: Ki): 2.28 µM
SMILES: COc1cccc2c3c(oc12)CN(CCCCOc1ccc2ccc(=O)n(C)c2c1)CC3

Ki ([10]; read-out: Ki): 0.0355 µM | Ki ([10]; read-out: pKi (converted)): 0.0363 µM | Ki ([11]; read-out: Ki): 0.159 µM | Ki ([11]; read-out: pKi (converted)): 0.162 µM | Ki ([12]; read-out: Ki): 0.611 µM | concentration at 0.5 h [1]: 410 ng/mL | Cp [2]: 540 ng/mL | Kp at 0.5 h [3]: 0.759 | concentration at 2 h [4]: 332 ng/mL | Cp [5]: 571 ng/mL | Kp at 2 h [6]: 0.439
SMILES: COc1cccc2c3c(oc12)CN(CCCCOc1ccc2c(c1)NC(=O)CC2)CC3

Ki ([7]; read-out: Ki): 0.109 µM | EC50 ([8]; read-out: EC50): 0.0304 µM | EC50 ([9]; read-out: EC50): 0.0122 µM
SMILES: CCOc1cccc2cc(CNCCCOc3ccc4c(c3)NC(=O)CC4)oc12

Ki ([7]; read-out: Ki): 0.0333 µM | Ki ([7]; read-out: pKi (converted)): 0.0339 µM | EC50 ([8]; read-out: EC50): 0.00516 µM | EC50 ([9]; read-out: EC50): 0.00201 µM | concentration at 0.5 h [1]: 60.7 ng/mL | Cp [2]: 331 ng/mL | Kp at 0.5 h [3]: 0.183 | concentration at 2 h [4]: 4.1 ng/mL | Cp [5]: 10.7 ng/mL | Kp at 2 h [6]: 0.384
SMILES: COc1cccc2cc(CNCCCCOc3ccc4c(c3)NC(=O)CC4)oc12

EC50 ([8]; hek293t): Not Active
SMILES: CC(C)Oc1cccc2c3c(oc12)CN(CCCCOc1ccc2ccc(=O)[nH]c2c1)CC3

Continued, compound first:

SMILES: COc1cccc2cc(CNCCCCOc3ccc4ccc(=O)[nH]c4c3)oc12
concentration at 0.5 h [1]: 32.1 ng/mL | Cp [2]: 272 ng/mL | Kp at 0.5 h [3]: 0.118 | concentration at 2 h [4]: 3.02 ng/mL | Cp [5]: 6.95 ng/mL | Kp at 2 h [6]: 0.434

SMILES: CCOc1cccc2cc(CNCC[C@H]3CC[C@H](NC(=O)N(C)C)CC3)oc12
Ki ([7]; read-out: Ki): 0.0993 µM | EC50 ([8]; read-out: EC50): 0.0147 µM | EC50 ([9]; read-out: EC50): 0.00381 µM

SMILES: CCOc1cccc2cc(CNCCCCOc3ccc4ccc(=O)[nH]c4c3)oc12
Ki ([7]; read-out: Ki): 0.00012 µM | Ki ([7]; read-out: pKi (converted)): 0.000129 µM | EC50 ([8]; read-out: EC50): 0.00013 µM | EC50 ([8]; read-out: pEC50 (converted)): 0.000123 µM | EC50 ([9]; read-out: EC50): 0.00022 µM | concentration at 0.5 h [1]: 48.3 ng/mL | Cp [2]: 792 ng/mL | Kp at 0.5 h [3]: 0.061 | concentration at 2 h [4]: 5.76 ng/mL | Cp [5]: 53.1 ng/mL | Kp at 2 h [6]: 0.109

SMILES: CCOc1cccc2cc(CNCCCCOc3ccc4oc(C)nc4c3)oc12
Ki ([7]; read-out: Ki): 0.935 µM | Ki ([7]; read-out: pKi (converted)): 0.955 µM | EC50 ([8]; read-out: EC50): 2.67 µM | EC50 ([9]; read-out: EC50): 0.125 µM | EC50 ([9]; read-out: pEC50 (converted)): 0.135 µM

SMILES: CCOc1cccc2cc(C(C)NCC3(O)CCCCC3)oc12 (configuration not stated)
Ki ([7]; read-out: Ki): 2.13 µM

SMILES: COc1cccc2c3c(oc12)CN(CCCCOc1ccc2ccc(=O)[nH]c2c1)CC3
EC50 ([8]; read-out: EC50): 0.0188 µM | Ki ([10]; read-out: Ki): 0.189 µM | Ki ([11]; read-out: Ki): 1.04 µM | Ki ([12]; read-out: Ki): 0.555 µM | Ki ([12]; read-out: pKi (converted)): 0.562 µM | Cp [5]: 397 ng/mL | half-life [13]: 3.48 h | C0 at 24 h [14]: 1330 ng/mL | AUC(0-t) at 24 h [15]: 2990 ng·h/mL | AUC(0-inf) [16]: 3010 ng·h/mL | clearance [17]: 16.7 mL/min/kg | half-life [18]: 2.87 h | Cmax [19]: 1560 ng/mL | Tmax [20]: 0.5 h | AUC(0-t) at 24 h [21]: 8920 ng·h/mL | AUC(0-inf) [22]: 8940 ng·h/mL | bioavailability [23]: 88.8%

SMILES: CCOc1cccc2cc(CNCC[C@H]3CC[C@H](NC(=O)N4CCCC4)CC3)oc12
Ki ([7]; read-out: Ki): 0.0679 µM | Ki ([7]; read-out: pKi (converted)): 0.0692 µM | EC50 ([8]; read-out: EC50): 0.0109 µM | EC50 ([9]; read-out: EC50): 0.0062 µM

SMILES: O=C1CCc2ccc(OCCCCNCc3cc4ccccc4o3)cc2N1
Ki ([7]; read-out: Ki): 0.582 µM | EC50 ([8]; read-out: EC50): 0.0537 µM | EC50 ([9]; read-out: EC50): 0.00729 µM

SMILES: CCOc1cccc2cc(CNCC[C@H]3CC[C@H](NC(=O)C4CC4)CC3)oc12
Ki ([7]; read-out: Ki): 0.0628 µM | EC50 ([8]; read-out: EC50): 0.0068 µM | EC50 ([9]; read-out: EC50): 0.00408 µM

SMILES: COc1cccc2cc(CNCCCOc3ccc4ccc(=O)[nH]c4c3)sc12
Ki ([7]; read-out: Ki): 0.181 µM | EC50 ([8]; read-out: EC50): 0.27 µM | EC50 ([9]; read-out: EC50): 0.0205 µM

SMILES: O=c1ccc2ccc(OCCCCNCc3cc4ccccc4o3)cc2[nH]1
Ki ([7]; read-out: Ki): 0.239 µM | EC50 ([8]; read-out: EC50): 0.0258 µM | EC50 ([9]; read-out: EC50): 0.00251 µM
